Measured values from paper PMC11345844, “Non-Covalent Inhibitors of SARS-CoV-2 Papain-Like Protease (PLpro): In Vitro and In Vivo Antiviral Activity” (Journal of Medicinal Chemistry, 2024).
“Also recorded” adds a separate entry of the source. Where two headings read alike, the source gives them in different places.

Tests used:
SARS-CoV-2 (strain WA1) [1] = assay: Antiviral plaque assay in Vero cells with P-gp inhibitor CP-100356; assay type: cell-based
PLpro [2] = details: compared with all inhibitors studied; cited from earlier work
SARS-CoV-2 (strain WA1) [3] = assay type: cell-based
in vitro = details: human
PLpro [4] = details: cited from earlier work; for IC50: read-out: Reported enzyme inhibition potency IC50, see referenced publications for assay details
[5] = i.v. hamster, 2 mg/kg
Vero E6 cells = details: cited from earlier work
A549-hACE2 cells = details: cited from earlier work
in vivo [6] = details: male, C57BL/6, mouse, plasma
in vivo [7] = details: male, hamster, plasma
Plasma protein binding = details: human
in vivo [8] = details: C57BL/6, mouse, plasma, ip, 25 mg/kg
COVID-19 = details: human, in vivo, po; cited from earlier work
[9] = 64 25 mg/kg i.p., between 0.5 to 5 h after administration
SARS-CoV-2 [10] = details: cited from earlier work
[11] = Plasma PK of 32 (Figure S1)
SARS-CoV-2 [12] = details: read-out: Reported cell-based antiviral potency EC50; cited from earlier work
[13] = Plasma exposure after 50 mg/kg i.p. in male C57BL/6 mice
[14] = Comparison of plasma PK of 10 and 42 (Figure S3); details: 25 mg/kg i.p. (Figure S3)

Structure (SMILES): Cc1ccc(NC2CNC2)cc1C(=O)N[C@H](C)c1cccc(-c2ccc(CN[C@H]3CC[C@@H](O)C3)s2)c1 [Compound 11]
- efficacy in inhibiting viral replication (plaque assay) (SARS-CoV-2 (strain WA1) [1]): least efficacious compound
- off-rate (PLpro [2]): lowest off-rate

Structure (SMILES): CC(=O)OC(C)OC(=O)N1CC(Nc2ccc(C)c(C(=O)N[C@H](C)c3cccc(-c4ccc(CNC(=O)C5CCCC5)s4)c3)c2)C1 (stereo partly drawn) [Compound 62, 1-Acetoxyethyl 3-((3-(((R)-1-(3-(5-(cyclopentanecarboxamidomethyl)thiophen-2-yl)phenyl)ethyl)carbamoyl)-4-methylphenyl)amino)azetidine-1-carboxylate]
- antiviral activity by RT-PCR of viral RNA (SARS-CoV-2 (strain WA1) [3]): not greatly improved

Structure (SMILES): Cc1ccc(OC2CCNCC2)cc1C(=O)N[C@H](C)c1cccc(-c2ccc(CNC3CCCC3)s2)c1 [Compound 44, (R)-N-(1-(3-(5-((Cyclopentylamino)methyl)thiophen-2-yl)phenyl)ethyl)-2-methyl-5-(piperidin-4-yloxy)benzamide]
- CC50 (in vitro): 22 ± 0.9 µM

Structure (SMILES): COC(=O)/C=C/CNC(=O)CNC(=O)[C@H](CN)NC(=O)[C@H](CCc1nc2ccccc2s1)NC(C)=O [Compound 8]
- Reported enzyme inhibition (PLpro [4]; at 100 μM): almost complete inhibition

Structure (SMILES): Cc1ccc(NC2CNC2)cc1C(=O)N[C@H](C)c1cccc(-c2ccc(CNC3CCCC3)s2)c1 [Compound 10]
- plasma clobs (i.v. mouse, 2 mg/kg): 111 ± 16 mL/min/kg
- bioavailability (i.v./s.c., mice and hamsters, minor species differences): good
- plasma clobs [5]: 75 ± 5 mL/min/kg
- potency against viral infection (Vero E6 cells): low micromolar potency
- potency against viral infection (A549-hACE2 cells): low micromolar potency
- Cmax (in vivo [6]; iv, 2 mg/kg): 734 ± 125 ng/mL
- Cmax (in vivo [6]; sc, 50 mg/kg): 3190 ± 667 ng/mL
- Cmax (in vivo [7]; iv, 2 mg/kg): 2920 ± 474 ng/mL
- Cmax (in vivo [7]; sc, 20 mg/kg): 1220 ± 276 ng/mL
- CC50 (in vitro): 43 ± 1.8 µM
- half-life (Human plasma stability): 60 h
- fraction unbound (Plasma protein binding): 0.033

Structure (SMILES): Cc1ccc(NC2CNC2)cc1C(=O)N[C@H](C)c1cccc(-c2ccc(CN[C@H]3CC[C@@H](C(=O)O)C3)s2)c1 [Compound 39, (1R,3S)-3-(((5-(3-((R)-1-(5-(Azetidin-3-ylamino)-2-methylbenzamido)ethyl)phenyl)thiophen-2-yl)methyl)amino)cyclopentane-1-carboxylic Acid]
- Cmax (in vivo [8]): 7910 ng/mL
- half-life (in vivo [8]): 2 h

Structure (SMILES): Nc1ccc2cc3ccc(N)cc3nc2c1 [Compound 6, proflavine]
- IC50 (PLpro [4]): 1.46 µM

Structure (SMILES): CC(C)C(=O)OC[C@H]1O[C@@H](n2cc/c(=N\O)[nH]c2=O)[C@H](O)[C@@H]1O [Compound 65, Molnupiravir]
- efficacy against hospitalization or death (COVID-19): about 30%

Structure (SMILES): Cc1ccc(NC2CNC2)cc1C(=O)N[C@H](C)c1cccc(-c2ccc(CN[C@H]3CC[C@@H](C(=O)OC[C@H]4O[C@@H](n5ccc(NO)nc5=O)[C@H](O)[C@@H]4O)C3)s2)c1 [Compound 64, ((3S,4R,5R)-3,4-Dihydroxy-5-(4-(hydroxyamino)-2-oxopyrimidin-1(2H)-yl)tetrahydrofuran-2-yl)methyl (1R,3S)-3-(((5-(3-((R)-1-(5-(azetidin-3-ylamino)-2-methylbenzamido)ethyl)phenyl)thiophen-2-yl)methyl)amino)cyclopentane-1-carboxylate]
- detection of mutual prodrug in plasma [9]: not detectable; also recorded: undetectable

Structure (SMILES): CC(C)(C)[C@H](NC(=O)C(F)(F)F)C(=O)N1C[C@H]2[C@@H]([C@H]1C(=O)N[C@H](C#N)C[C@@H]1CCNC1=O)C2(C)C [nirmatrelvir]
- left-shift in the response caused by CP-100356 (SARS-CoV-2 [10]): ca. 100 fold

Structure (SMILES): CC(=O)Nc1cccc(CNC(=O)C2CCN([C@H](C)c3cccc4ccccc34)CC2)c1 [Compound 3]
- IC50 (PLpro [4]): 2.69 ± 0.34 µM

Structure (SMILES): Cc1ccc(NC2CNC2)cc1C(=O)N[C@H](C)c1cccc(-c2cc(C)c(CNC3CCCC3)s2)c1 [Compound 16, (R)-5-(Azetidin-3-ylamino)-N-(1-(3-(5-((cyclopentylamino)methyl)-4-methylthiophen-2-yl)phenyl)ethyl)-2 Methylbenzamide]
- CC50 (in vitro): 27 ± 1.4 µM

Structure (SMILES): Cc1ccc(NC2CNC2)cc1C(=O)N[C@H](C)c1cccc(-c2ccc(CNC(=O)C3CCCC3)s2)c1 [Compound 32, (R)-5-(Azetidin-3-ylamino)-N-(1-(3-(5-(cyclopentanecarboxamidomethyl)thiophen-2-yl)phenyl)ethyl)-2-methylbenzamide]
- efficacy in inhibiting viral replication (plaque assay) (SARS-CoV-2 (strain WA1) [1]): almost complete loss of antiviral activity
- antiviral activity by RT-PCR of viral RNA (SARS-CoV-2 (strain WA1) [3]): lack of activity
- bioavailability administered i.p. ([11]; 25 mg/kg i.p. (Figure S1)): good bioavailability
- oral bioavailability ([11]; p.o. 100 mg/kg in corn oil, gavage (Figure S1)): without oral bioavailability

Structure (SMILES): Cc1ccc(NC2CNC2)cc1C(=O)N[C@H](C)c1cccc(-c2ccc(CN3CCCC3)s2)c1 [Compound 2]
- potency against viral infection (Vero E6 cells): low micromolar potency
- potency against viral infection (A549-hACE2 cells): low micromolar potency
- EC50 (SARS-CoV-2 [12]): 1.2 ± 0.2 µM
- toxicity observation [13]: overt toxicity

Structure (SMILES): Cc1ccc(OC2CNC2)cc1C(=O)N[C@H](C)c1cccc(-c2ccc(CN3CCCC3)s2)c1 [Compound 42, (R)-5-(Azetidin-3-yloxy)-2-methyl-N-(1-(3-(5-(pyrrolidin-1-ylmethyl)thiophen-2-yl)phenyl)ethyl)benzamide]
- efficacy in inhibiting viral replication (plaque assay) (SARS-CoV-2 (strain WA1) [1]): relatively higher efficacy
- in vivo exposure compared to 10 [14]: significantly lower exposure

Structure (SMILES): Cc1ccc(OCCN)cc1C(=O)N[C@H](C)c1cccc(-c2ccc(CN3CCCC3)s2)c1 [Compound 48, (R)-5-(2-Aminoethoxy)-2-methyl-N-(1-(3-(5-(pyrrolidin-1-ylmethyl)thiophen-2-yl)phenyl)ethyl)benzamide]
- efficacy in inhibiting viral replication (plaque assay) (SARS-CoV-2 (strain WA1) [1]): low efficacy
